Values joined by “and” are separate entries in the source; they are usually repeats but may differ in a detail not shown here. Equal entries are not always repeated. Structures can show the parent of a compound that is named as a salt. Where two headings read alike, the source gives them in different places.
What was measured:
[1] = system: hereditary angioneurotic edema; settings: literature report, New England J. Med. 286, 808-812 (1972); cited from earlier work
complement system = settings: literature report; cited from earlier work
citrated sheep plasma = test: In vitro anti-coagulant activity (AC): clotting of recalcified citrated sheep plasma with sheep RBC; assay type: biochemical; settings: for AC Wells: Table I, two-fold serial dilution, higher well number indicates higher activity, sodium heparin positive control; for Anti-coagulant Activity (Wells) AC: Table II, in vitro
Protocol: The sheep RBC's, kept in suspension throughout the clotting incubation time, become enmeshed in the fibrin matrix if a clot forms. Upon centrifugation of the plate, untrapped RBC's form buttons, the sizes of which correspond to the degree of clot inhibition; this providing a measure of anti-coagulant activity (AC). Sodium heparin is used as a positive control and activity is reported in wells appearing in Table 1.
(§1) **Activity in wells a serial dilution assay. Higher well number indicates
(§2) higher activity. The serial dilutions are two -fold.

[2] = system: human serum total hemolytic complement; settings: in vitro and in vivo, Pathologie Biologie 25, 33-36 (1977); cited from earlier work
whole complement = test: In vivo activity: whole complement level of serum of dosed guinea pigs, capillary tube assay; settings: guinea pig; for inhibition at 200 mg/kg: Cavia porcellus, iv, 200 mg/kg i.v.; for % Inhibition, Intraperitoneal, 30 min / % Inhibition, Intraperitoneal, 60 min / % Inhibition, Intraperitoneal, 120 min: 200 mg/kg i.p., 200 mg/kg
Description: (§3) An active inhibitor protects C2 from C1 and C4; (ii) Test, Code 035 (C3-C9 inhibitor) - This test determines the ability of the late components of human complement (C3-C9) to lyse EAC 142 in the presence of appropriate dilutions of the test compound. An active inhibitor protects EAC 142 from lysis by human C3-C9; (iii) Test, Code 036 (C-Shunt inhibitor) - In this test human erythrocytes rendered fragile are lysed in autologous serum via the shunt pathway activated by cobra venom factor in the presence of appropriate dilutions of the test compound. Inhibition of the shunt pathway results in failure of lysis; (iv) Forssman Vasculitis Test - Here, the well known complement dependent lesion, Forssman vasculitis, is produced in guinea pigs by intradermal injection of rabbit anti-Forssman antiserum. The lesion is measured in terms of diameter, edema and hemorrhage and the extent to which a combined index of these is inhibited by prior intraperitoneal injection of the test compound at 200 mg/kg is then reported, unless otherwise stated; (v) Forssman Shock Test - Lethal shock is produced in guinea pigs by an i.v. injection of anti-Forssman antiserum and the harmonic mean death time of treated guinea pigs is compared with that of simultaneous controls; (vi) Complement Level Reduction Test -- In this test, the above dosed guinea pigs, or others, are bled for serum and the complement level is determined in undiluted serum by the capillary tube method of U.S. Pat. No. 3,876,376 and compared to undosed control guinea pigs; and (vii) Cap 50 Test -- Here, appropriate amounts of the test compound are added to a pool of guinea pig serum in vitro, after which the undiluted serum capillary tube assay referred to above is run. The concentration of compound inhibiting 50% is reported.
With reference to Table I, guinea pigs weighing about 300 g were dosed intravenously (i.v.) or intraperitoneally (i.p.) with 200 mg/kg of the test compound dissolved in saline and adjusted to pH 7-8. […] The serum was tested for whole complement using the capillary tube assay. Percent inhibition was calculated by comparison with simultaneous controls. The results appear in Table I together with results of tests, code 026, 035, 036, Cap 50, % inhibition and Forssman shock.

activated human C1 = activated human C1 (Homo sapiens, UniProt P09871); test: Code 026 (C1 inhibitor) test: ability of activated human C1 to destroy fluid phase human C2 in presence of C4; assay type: biochemical; settings: for C1 026 Wells: Table I, two-fold serial dilution, higher well number indicates higher activity; for Complement Inhibiting Activity (Wells) Code 026: Table II, in vitro
Description: as §3, §1, §2

[3] = system: anti-complement and anti-coagulant activities; test: Intrinsic Therapeutic Index: separation of anti-complement (Code 026) and anti-coagulant (AC) activities; settings: for Intrinsic Therapeutic Index: antilogarithm (base 2) of the difference in wells; for Logarithmic Difference Expressed As Wells: log base 2 difference, Code 026 minus AC
Description: The computation of an Intrinsic Therapeutic Index (ITI) was devised to correlate the results expressed in wells, obtained in the in vitro Code 026 (C1 inhibitor) test and the in vitro anti-coagulant (AC) test into a meaningful value which would aid in the net evaluation of the activity of the compounds of this invention.
The ITI is thus a measure of the separation of anti-complement and anti-coagulant activities; the higher the numerical value the more therapeutically useful the separation of activities.

shunt pathway = test: Code 036 (C-Shunt inhibitor) test: lysis of fragile human erythrocytes in autologous serum via shunt pathway activated by cobra venom factor; assay type: cell-based; settings: Table I; two-fold serial dilution, higher well number indicates higher activity
Description: An active inhibitor protects C2 from C1 and C4; (ii) Test, Code 035 (C3-C9 inhibitor) - This test determines the ability of the late components of human complement (C3-C9) to lyse EAC 142 in the presence of appropriate dilutions of the test compound. An active inhibitor protects EAC 142 from lysis by human C3-C9; (iii) Test, Code 036 (C-Shunt inhibitor) - In this test human erythrocytes rendered fragile are lysed in autologous serum via the shunt pathway activated by cobra venom factor in the presence of appropriate dilutions of the test compound. Inhibition of the shunt pathway results in failure of lysis; (iv) Forssman Vasculitis Test - Here, the well known complement dependent lesion, Forssman vasculitis, is produced in guinea pigs by intradermal injection of rabbit anti-Forssman antiserum. […]

## NC[C@H]1CC[C@H](C(=O)O)CC1 [tranexamic acid]
[1]
  success in treatment of hereditary angioneurotic edema: used with success

## Nc1ccc2cc(S(=O)(=O)O)cc(O)c2c1N=Nc1ccc(NC(=O)Nc2ccc(N=Nc3c(N)ccc4cc(S(=O)(=O)O)cc(O)c34)c(S(=O)(=O)O)c2)cc1S(=O)(=O)O [chlorazol fast pink, 3,3'-ureylenebis-[6-(2-amino-8-hydroxy-6-sulfo-1-naphthylazo)]benzenesulfonic acid, tetrasodium salt]
Complement system
  anticomplementary effect / complement inhibition: anticomplementary effect

## COC(=O)c1cc(NS(=O)(=O)c2cc(S(=O)(=O)Nc3ccc(O)c(C(=O)OC)c3)cc(S(=O)(=O)Nc3ccc(O)c(C(=O)OC)c3)c2)ccc1O [5,5',5"-[s-Phenenyltris(sulfonylimino)]trisalicyclic acid trimethyl ester]
Citrated sheep plasma
  AC Wells: ≤ +1 Wells

## O=C(O)c1cc(NS(=O)(=O)c2cc(S(=O)(=O)Nc3ccc(O)c(C(=O)O)c3)cc(S(=O)(=O)Nc3ccc(O)c(C(=O)O)c3)c2)ccc1O [5,5',5"-[s-Phenenyltris(sulfonylimino)]trisalicylic acid]
Citrated sheep plasma
  AC Wells: -2 Wells

## heparin
Complement system
  anticomplementary effect / complement inhibition: anticomplementary effect

## COCCOC(=O)c1cc(NS(=O)(=O)c2cc(S(=O)(=O)Nc3cc(C(=O)OCCOC)cc(C(=O)OCCOC)c3)cc(S(=O)(=O)Nc3cc(C(=O)OCCOC)cc(C(=O)OCCOC)c3)c2)cc(C(=O)OCCOC)c1 [5,5',5"-[s-Phenenyltris(sulfonylimino)]tri-isophthalic acid hexakis(2-methoxyethyl)ester]
Citrated sheep plasma
  AC Wells: < 0 Wells

## NCCCCCC(=O)O [epsilon-aminocaproic acid]
[1]
  success in treatment of hereditary angioneurotic edema: used with success

## pentosan-poly-sulfoester
[2]
  anticomplementary activity, reduction in total hemolytic complement activity: anticomplementary activity on human serum both in vitro and in vivo

## O=C(O)c1cc(NS(=O)(=O)c2cc(S(=O)(=O)Nc3cc(C(=O)O)cc(C(=O)O)c3)cc(S(=O)(=O)Nc3cc(C(=O)O)cc(C(=O)O)c3)c2)cc(C(=O)O)c1 [5,5',5"-[s-Phenenyltris(sulfonylimino)]tri-isophthalic acid] [listing 1 of 2 here]
Whole complement; 2 min, 2 mins., read-out: % Inhibition, Intravenous, 2 min
  inhibition at 200 mg/kg: -88%
Whole complement; 0.5 h, 30 mins., read-out: % Inhibition, Intravenous, 30 min
  inhibition at 200 mg/kg: -66%
Whole complement; 2 h, 120 mins., read-out: % Inhibition, Intravenous, 120 min
  inhibition at 200 mg/kg: -53%

## O=C(O)c1cc(NS(=O)(=O)c2cc(S(=O)(=O)Nc3cc(C(=O)O)c(O)c(C(=O)O)c3)cc(S(=O)(=O)Nc3cc(C(=O)O)c(O)c(C(=O)O)c3)c2)cc(C(=O)O)c1O [5,5',5"-[s-Phenenyltris(sulfonylimino)]tri-2-hydroxy-isophthalic acid]
Citrated sheep plasma
  AC Wells: -1 Wells
  Anti-coagulant Activity (Wells) AC: -1 Wells
Activated human C1
  C1 026 Wells: +6 Wells
  Complement Inhibiting Activity (Wells) Code 026: +6 Wells
[3]
  Intrinsic Therapeutic Index: 128
  Logarithmic Difference Expressed As Wells: +7 Wells
Shunt pathway
  Shunt Inhibition 036 Wells: +1 Wells

## O=C(O)c1cc(NS(=O)(=O)c2cc(S(=O)(=O)Nc3cc(C(=O)O)cc(C(=O)O)c3)cc(S(=O)(=O)Nc3cc(C(=O)O)cc(C(=O)O)c3)c2)cc(C(=O)O)c1 [5,5',5"-[s-Phenenyltris(sulfonylimino)]tri-isophthalic acid ] [5,5',5"-[s-Phenenyltris(sulfonylimino)]tri-isophthalic acid hexasodium salt, trisodium derivative compound with ethyl alcohol (2:5)]
Citrated sheep plasma
  AC Wells: -1 Wells
  Anti-coagulant Activity (Wells) AC: -1 Wells
Activated human C1
  C1 026 Wells: +5 Wells
  Complement Inhibiting Activity (Wells) Code 026: +5 Wells
[3]
  Intrinsic Therapeutic Index: 64
  Logarithmic Difference Expressed As Wells: +6 Wells
Whole complement; 30 mins.
  % Inhibition, Intraperitoneal, 30 min: -62%
Whole complement
  % Inhibition, Intraperitoneal, 60 min: -53%
Whole complement; 120 mins.
  % Inhibition, Intraperitoneal, 120 min: -49%

## O=C(O)c1cc(NS(=O)(=O)c2cc(S(=O)(=O)Nc3cc(C(=O)O)cc(C(=O)O)c3)cc(S(=O)(=O)Nc3cc(C(=O)O)cc(C(=O)O)c3)c2)cc(C(=O)O)c1 [5,5',5"-[s-Phenenyltris(sulfonylimino)]tri-isophthalic acid] [listing 2 of 2 here]
[3]
  Intrinsic Therapeutic Index: 512 and 256
Whole complement; 30 mins.
  % Inhibition, Intraperitoneal, 30 min: -74%
Whole complement
  % Inhibition, Intraperitoneal, 60 min: -74%
Whole complement; 120 mins.
  % Inhibition, Intraperitoneal, 120 min: -74%

## Cc1ccc(C(=O)Nc2ccc(S(=O)(=O)O)c3cc(S(=O)(=O)O)cc(S(=O)(=O)O)c23)cc1NC(=O)c1cccc(NC(=O)Nc2cccc(C(=O)Nc3cc(C(=O)Nc4ccc(S(=O)(=O)O)c5cc(S(=O)(=O)O)cc(S(=O)(=O)O)c45)ccc3C)c2)c1 [Suramin]
Complement system
  anticomplementary effect / complement inhibition: competitive inhibitor of the complement system
[1]
  success in treatment of hereditary angioneurotic edema: used with success

## COC(=O)c1cc(NS(=O)(=O)c2cc(S(=O)(=O)Nc3cc(C(=O)OC)c(O)c(C(=O)OC)c3)cc(S(=O)(=O)Nc3cc(C(=O)OC)c(O)c(C(=O)OC)c3)c2)cc(C(=O)OC)c1O [5,5',5"-[s-Phenenyltris(sulfonylimino)]tri-2-hydroxy isophthalic acid hexamethyl ester]
Citrated sheep plasma
  AC Wells: -1 Wells
